Reference: patent publication US20250160330A1, “METHOD FOR CONTROLLING HARMFUL ARTHROPODS OR HARMFUL NEMATODES USING ZOANTHAMINE ANALOG” (SUMITOMO CHEMICAL COMPANY, LIMITED, priority 2022, published 2025)

What was measured:
[1] = test system: western flower thrips (Frankliniella occidentalis); test: Test method 5: sprayed cucumber leaf, western flower thrips larvae; assay type: in vivo; conditions: 144 h, read-out: mortality of insects
Procedure: (§1) Test compounds are made to a formulation according to a similar method to that described in the Formulation Example 5, and thereto is added water containing 0.03 v/v % of Shindain (registered trademark) to prepare a diluted solution containing a prescribed concentration of the test compound.
Cucumber (Cucumber sativus) seedling (on the developmental stage of the second true leaf) is planted in a cup, and the diluted solutions are sprayed into the seedling at a ratio of 10 mL/seedling. Thereafter, the second true leaf is cut, and the cut leaf was placed in the cup, and approximately twenty (20) of larvae of western flower thrips (Frankliniella occidentalis) larvae are released onto the leaf. After 6 days, the number of the surviving insects is examined and the mortality of insects is calculated by the following equation.

[2] = test system: brown planthoppers (Nilaparvata lugens); test: Test method 4: foliar spray on rice seedling, brown planthopper larvae; assay type: in vivo; conditions: 144 h, read-out: mortality of insects
Procedure: as §1
Rice (Oryza sativa) seedling (on the developmental stage of the second true leaf) is planted in a cup, and the diluted solutions are sprayed into the seedling at a ratio of 10 mL/seedling. Thereafter, twenty (20) of 3rd instar larvae of brown planthoppers (Nilaparvata lugens) are released onto the rice leaves. After 6 days, the number of the surviving insects is examined and the mortality of insects is calculated by the following equation.

[3] = test system: cotton worm (Spodoptera litura); test: Test method 2: foliar spray on cabbage seedling, cotton worm larvae; assay type: in vivo; conditions: 144 h, read-out: mortality of insects
Procedure: as §1
(§2) Cabbage (Brassicae oleracea) seedling (on the developmental stage of the third to fourth true leaf) is planted in a cup, and the diluted solutions are sprayed into the seedling at a ratio of 20 mL/seedling. Thereafter, ten (10) cotton worm (Spodoptera litura) at the third instar larval stage are released. After 6 days, the number of the surviving insects is counted, and the mortality of insects is calculated by the following equation.

[4] = test system: cotton worm (Spodoptera litura); test: Test method 1: foliar spray on cabbage seedling, cotton worm larvae; assay type: in vivo; conditions: 144 h, read-out: mortality of insects
Procedure: The test compounds are made to a formulation according to a similar method to that described in the Formulation Example 5, and thereto is added water containing 0.03 v/v % of Shindain (registered trademark) to prepare a diluted solution containing a prescribed concentration of the test compound.
as §2

[5] = test system: southern root-knot nematode (Meloidogyne incognita); test: Test method 7: soil mixing and irrigation, tomato seedlings in nematode-polluted soil, root-knot index by Zeck; assay type: in vivo; conditions: 1,000 ppm
Procedure: Test compounds 60 mg are dissolved in acetone 600 μL containing Tween (Registered trade mark) by 5%, and thereto is added water to prepare a diluted solution containing a prescribed concentration of the test compound.
The diluted solution 20 mL are soil which is polluted with southern root-knot nematode (Meloidogyne incognita) 400 mL are mixed, and a root of healthy tomato seedlings (on the developmental stage of third to fourth true leaf) is transplanted in the soil. After the transplanting, the diluted solution 40 mL is irrigated onto soli of tomato seedlings. After 10 days, the roots are pull out from the soil, washed and the damage degree of the root (root-knot degree) is examined according to a root-knot index by Zeck (Zeck, W. M. (1971): Pflanzenschutz-Nachrichten. Bayer AG, 24, 141-144).
• 0: No root-knots is recognized. • 1: By careful observation, several small root-knots can be recognized. • 2: Several small root-knots can be easily confirmed similarly to 1. • 3: Many small root-knots are found, and some of which are fused. A function of the root is not almost lost. • 4: Many small root-knots are found, and some large ones are found. […]

[6] = test system: cotton aphids (Aphis gossypii); test: Test method 3: foliar spray on cucumber seedling infested with cotton aphids; conditions: read-out: mortality of insects
[7] = test system: northern house mosquitos (Culex pipiens pipiens); test: Test method 8: coated container contact test, northern house mosquito female adults; assay type: in vivo; conditions: 24 h, read-out: mortality of insects
Procedure: The test compounds are dissolved with acetone containing a surfactant, and the solution was then poured into a container of 20 mL contents, and the solution was coating uniformly in the inner face of the container such that the test compound is made 10 mg/m^2, and the surfactant is made 40 mg/m^2, and the container is dried.
Five (5) of female adult of northern house mosquitos (Culex pipiens pipiens) are placed in the contained, and the contained is put the lid. After the passing of the prescribed times, the state of the northern house mosquitos are examined, and the mortality is calculated by the following equation.

[8] = test system: silverleaf whiteflies (Bemisia tabaci); test: Test method 6: foliar spray on tomato seedling with silverleaf whitefly larvae; conditions: in Solanum lycopersicum, 168 h, read-out: mortality of insects

SMILES: CC1=CC(=O)[C@H]2CC(=O)[C@H]3[C@](C)([C@@H]2C1)[C@H](Cl)[C@@]12OC(=O)C[C@]3(C)[C@]1(C)CC[C@]13C[C@@H](C)C[C@H](CN12)O3 [AA-1]
- mortality at 200 ppm [1]: ≥ 90%
- mortality at 200 ppm [2]: ≥ 90%
- mortality at 200 ppm [3]: ≥ 80%
- mortality at 200 ppm [4]: ≥ 80%
- root-knot index ([5]; 20 mL mixed with 400 mL soil plus 40 mL irrigation, tomato seedlings, after 10 days, untreated group index 4): 1 (By careful observation, several small root-knots can be recognized.)
- formation of root-knot ([5]; versus untreated group): reduced a formation of root-knot
- mortality at 200 ppm [6]: ≥ 90%
- mortality at 10 mg/m2 [7]: ≥ 80%
- mortality at 200 ppm [8]: ≥ 90%
